What was measured:
[1] = tested on: SINAR; assay: Example III: post-emergence foliar-applied weed control in cereal crops, greenhouse; type: in vivo, Sinapis arvensis L.; settings: 21 DAA
Procedure: (§1) Seeds of the desired test plant species were planted in Sun Gro MetroMix® 306 planting mixture, which typically has a pH of 6.0 to 6.8 and an organic matter content of about 30 percent, in plastic pots with a surface area of 103.2 square centimeters (cm^2). When required to ensure good germination and healthy plants, a fungicide treatment and/or other chemical or physical treatment was applied. The plants were grown for 7-36 days in a greenhouse with an approximate 14 hour photoperiod which was maintained at about 18° C. during the day and 17° C. during the night. Nutrients and water were added on a regular basis and supplemental lighting was provided with overhead metal halide 1000-Watt lamps as necessary. The plants were employed for testing when they reached the second or third true leaf stage.
(§2) Treatments consisted of the benzyl ester of 4-amino-3-chloro-5-fluoro-6-(4-chloro-2-fluoro-3-methoxy-phenyl)pyridine-2-carboxylic acid (Compound A), formulated as an SC (suspension concentrate), and a second cereal herbicide alone and in combination.
(§3) Measured aliquots of the benzyl ester of 4-amino-3-chloro-5-fluoro-6-(4-chloro-2-fluoro-3-methoxy-phenyl)pyridine-2-carboxylic acid (Compound A) were placed in 25 milliliter (mL) glass vials and diluted in a volume of 1.25% (v/v) Agri-dex crop oil concentrated to obtain stock solutions. Compound requirements are based upon a 12 mL application volume at a rate of 187 liters per hectare (L/ha). Spray solutions of the second cereal herbicide and experimental compound mixtures were prepared by adding the stock solutions to the appropriate amount of dilution solution to form 12 mL spray solution with active ingredients in two- and three-way combinations. Formulated compounds were applied to the plant material with an overhead Mandel track sprayer equipped with an 8002E nozzle calibrated to deliver 187 L/ha over an application area of 0.503 square meters (m^2) at a spray height of 18 inches (46 cm) above average plant canopy. Control plants were sprayed in the same manner with the solvent blank.
(§4) The treated plants and control plants were placed in a greenhouse as described above and watered by sub-irrigation to prevent wash-off of the test compounds. After 20-22 days, the condition of the test plants as compared with that of the control plants was determined visually and scored on a scale of 0 to 100 percent where 0 corresponds to no injury and 100 corresponds to complete kill.
(§5) Colby's equation was used to determine the herbicidal effects expected from the mixtures (Colby, S. R. 1967. Calculation of the synergistic and antagonistic response of herbicide combinations. Weeds 15:20-22.).

[2] = tested on: PAPRH; assay: as above; type: in vivo, Papaver rhoeas L.; settings: 21 DAA
Procedure: as §1, §2, §3, §4, §5

[3] = tested on: SASKR; assay: as above; type: in vivo, Salsola tragus L.; settings: 21 DAA
Procedure: as §1, §2, §3, §4, §5

[4] = tested on: STEME; assay: as above; type: in vivo, Stellaria media (L.) Vill.; settings: 21 DAA
Procedure: as §1, §2, §3, §4, §5

[5] = tested on: CHEAL; assay: as above; type: in vivo, Chenopodium album L.; settings: 21 DAA
Procedure: as §1, §2, §3, §4, §5

[6] = tested on: KCHSC; assay: as above; type: in vivo, Kochia scoparia (L.) Schrad.; settings: 21 DAA
Procedure: as §1, §2, §3, §4, §5

[7] = tested on: CIRAR; assay: as above; type: in vivo, Cirsium arvense (L.) Scop.; settings: 21 DAA
Procedure: as §1, §2, §3, §4, §5

[8] = tested on: BRAPP; assay: Example I: postemergence foliar-applied weed control, direct seeded rice weeds, greenhouse; type: in vivo; settings: foliar
Excerpt: (§6) Seeds or nutlets of the desired test plant species were planted in a soil matrix prepared by mixing a loam or sandy loam soil (e.g., 28.6 percent silt, 18.8 percent clay, and 52.6 percent sand, with a pH of about 5.8 and an organic matter content of about 1.8 percent) and calcareous grit in an 80 to 20 ratio. The soil matrix was contained in plastic pots with a volume of 1 quart and a surface area of 83.6 square centimeters (cm^2). When required to ensure good germination and healthy plants, a fungicide treatment and/or other chemical or physical treatment was applied. The plants were grown for 8-22 days in a greenhouse with an approximate 14 hr photoperiod which was maintained at about 29° C. during the day and 26° C. during the night. Nutrients (Peters Excel® 15-5-15 5-Ca 2-Mg and iron chelate) were applied in the irrigation solution as needed and water was added on a regular basis. Supplemental lighting was provided with overhead metal halide 1000-Watt lamps as necessary. The plants were employed for testing when they reached the first through fourth true leaf stage.
(§7) Treatments consisted of the acid or esters of 4-amino-3-chloro-5-fluoro-6-(4-chloro-2-fluoro-3-methoxy-phenyl)pyridine-2-carboxylic acid (Compound A), each formulated as an SC (suspension concentrate), and various herbicidal components alone and in combination. Forms of compound A were applied on an acid equivalent basis.
(§8) Other herbicidal components were applied on an active ingredient basis and included very long chain fatty acid (VLCFA) synthesis-inhibiting and fatty acid/lipid synthesis-inhibiting herbicides acetochlor (technical grade material), acetochlor+dichlormid formulated as Topnotch®, pretilachlor (technical grade material), butachlor formulated as Butachlor EC, fentrazamide formulated as Fentrazamide EC, thiobencarb formulated as Bolero® 8EC, cafenstrole formulated as Himeadow® WP or Lapost® Flowable, benfuresate formulated as Full Shot®, dimethenamid-P formulated as Outlook®, indanofan (technical grade material), flufenacet formulated as Define® DF, mefenacet (technical grade material), S-metolachlor formulated as Dual® II Magnum, pethoxamid formulated as Successor® 600, and pyroxasulfone (technical grade material).
(§9) Treatment requirements were calculated based upon the rates being tested, the concentration of active ingredient or acid equivalent in the formulation, and a 12 mL application volume at a rate of 187 L/ha.
(§10) For treatments comprised of formulated compounds, measured amounts of compounds were placed individually in 25 mL glass vials and diluted in a volume of 1.25% (v/v) Agri-Dex® crop oil concentrated to obtain 12× stock solutions. […] Application solutions were prepared by adding an appropriate amount of each stock solution (e.g., 1 mL) and diluted to the appropriate final concentrations with the addition of 10 mL of an aqueous mixture of 1.25% (v/v) crop oil concentrate so that the final spray solutions contained 1.25+/−0.05% (v/v) crop oil concentrate.
(§11) For treatments comprised of technical compounds, weighed amounts can be placed individually in 25 mL glass vials and dissolved in a volume of 97:3 v/v acetone/DMSO to obtain 12× stock solutions. […] Application solutions can be prepared by adding an appropriate amount of each stock solution (e.g., 1 mL) and diluted to the appropriate final concentrations with the addition of 10 mL of an aqueous mixture of 1.5% (v/v) crop oil concentrate so that the final spray solutions contain 1.25% (v/v) crop oil concentrate. When technical materials are used, the concentrated stock solutions can be added to the spray solutions so that the final acetone and DMSO concentrations of the application solutions are […], respectively. […]

[9] = tested on: LEFCH; assay: Example I: postemergence foliar-applied weed control, greenhouse; type: in vivo, Leptochloa chinensis (L.) Nees (Chinese sprangletop); settings: foliar
Excerpt: as §6, §7, §8, §9, §10, §11

[10] = tested on: CYPIR; assay: as above; type: in vivo, Cyperus iria L. (rice flatsedge); settings: foliar
Excerpt: as §6, §7, §8, §9, §10, §11

[11] = tested on: CYPES; assay: as above; type: in vivo, Cyperus esculentus L. (yellow nutsedge)
[12] = tested on: IPOHE; assay: Example IV: pre-emergence soil-applied weed control, greenhouse; type: in vivo, Ipomoea hederacea Jacq. (ivyleaf morningglory); settings: 28 DAA
Excerpt: Seeds or nutlets of the desired test plant species were planted in a soil matrix prepared by mixing a loam soil (32 percent silt, 23 percent clay, and 45 percent sand, with a pH of about 6.5 and an organic matter content of about 1.9 percent) and calcareous grit in an 80 to 20 ratio. The soil matrix was contained in plastic pots with a volume of 1 quart and a surface area of 83.6 square centimeters (cm^2).
as §7, with “benzyl ester” for “acid or esters”, “(compound A)” for “(Compound A), each”, “concentrate)” for “concentrate),”
Other herbicidal components were applied on an active ingredient basis and included very long chain fatty acid (VLCFA) synthesis-inhibiting and fatty acid/lipid synthesis-inhibiting herbicides alachlor (technical grade material), dimethenamid-P formulated as Outlook®, and S-metolachlor formulated as Dual® II Magnum.
as §9
as §10, with “oil concentrate (COC)” for “oil concentrated”, “(v/v) COC” for “(v/v) crop oil concentrate”, “contained 1.25%” for “contained 1.25+/−0.05%”, “(v/v) COC.” for “(v/v) crop oil concentrate.”
For treatments comprised of technical compounds, weighed amounts can be placed individually in 25 mL glass vials and dissolved in a volume of 97:3 (v/v) acetone/DMSO to obtain 12× stock solutions. […] Application solutions can be prepared by adding an appropriate amount of each stock solution (e.g., 1 mL) and diluted to the appropriate final concentrations with the addition of 10 mL of an aqueous mixture of 1.5% (v/v) COC so that the final spray solutions contain 1.25% (v/v) COC. When technical materials are used, the concentrated stock solutions can be added to the spray solutions so that the final acetone and DMSO concentrations of the application solutions are 16.2% and 0.5%, respectively.
For treatments comprised of formulated and technical compounds, weighed amounts of the technical materials were placed individually in 25 mL glass vials and dissolved in a volume of 97:3 (v/v) acetone/DMSO to obtain 12× stock solutions, and measured amounts of the formulated compounds were placed individually in 25 mL glass vials and diluted in a volume of 1.5% (v/v) COC or water to obtain 12× stock solutions. […] Application solutions were prepared by adding an appropriate amount of each stock solution (e.g., 1 mL) and diluted to the appropriate final concentrations with the addition of an appropriate amount of an aqueous mixture of 1.5% (v/v) COC so that the final spray solutions contained 1.25% (v/v) COC. As required, additional water and/or 97:3 (v/v) acetone/DMSO was added to individual application solutions so that the final acetone and DMSO concentrations of the application solutions being compared were 8.1% and 0.25%, respectively.
All stock solutions and applications solutions were visually inspected for compound compatibility prior to application. Spray solutions were applied to the soil with an overhead Mandel track sprayer equipped with a 8002E nozzles calibrated to deliver 187 L/ha over an application area of 0.503 m^2 at a spray height of 18 inches (46 cm) above average pot height. Control pots were sprayed in the same manner with the solvent blank.
The treated and control pots were placed in a greenhouse and top watered as needed. […]

[13] = tested on: ECHCG; assay: Example I: postemergence foliar-applied weed control, greenhouse; type: in vivo, Echinochloa crus-galli (L.) Beauv. (barnyardgrass); settings: foliar
Excerpt: as §6, §7, §8, §9, §10, §11

For CC(C)N(C(=O)COc1nnc(C(F)(F)F)s1)c1ccc(F)cc1 [Flufenacet, N-(4-fluorophenyl)-N-(1-methylethyl)-2-[[5-(trifluoromethyl)-1,3,4-thiadiazol-2-yl]oxy]acetamide], the “Visual Weed Control SINAR Obs” value ([1]; 60 gai/ha) was 5%, the “Visual Weed Control SINAR Obs” value ([1]; 120 gai/ha) was 8% and the “Visual Weed Control PAPRH Obs” value ([2]; 60 gai/ha) was 0%. For the same molecule, the “Visual Weed Control PAPRH Obs” value ([2]; 120 gai/ha) was 5%, the “Visual Weed Control PAPRH Obs” value ([2]; 240 gai/ha) was 7% and the “Visual Weed Control SASKR Obs” value ([3]; 60 gai/ha) was 5%. For the same molecule, the “Visual Weed Control SASKR Obs” value ([3]; 120 gai/ha) was 5%, the “Visual Weed Control SASKR Obs” value ([3]; 240 gai/ha) was 13% and the “Visual Weed Control STEME Obs” value ([4]; 60 gai/ha) was 0%. For the same molecule, the “Visual Weed Control STEME Obs” value ([4]; 120 gai/ha) was 5%, the “Visual Weed Control STEME Obs” value ([4]; 240 gai/ha) was 42% and the “Visual Weed Control CHEAL Obs” value ([5]; 60 gai/ha) was 0%. The “Visual Weed Control CHEAL Obs” value ([5]; 120 gai/ha) was 0%, the “Visual Weed Control KCHSC Obs” value ([6]; 60 gai/ha) was 5% and the “Visual Weed Control KCHSC Obs” value ([6]; 120 gai/ha) was 5%. For the same molecule, the “Visual Weed Control KCHSC Obs” value ([6]; 240 gai/ha) was 17%, the “Visual Weed Control CIRAR Obs” value ([7]; 60 gai/ha) was 0% and the “Visual Weed Control CIRAR Obs” value ([7]; 120 gai/ha) was 0%. The “Visual Weed Control CIRAR Obs” value ([7]; 240 gai/ha) was 17%, the “Visual Weed Control (%) - 22 DAA BRAPP Obs” value ([8]; 187.5 gai/ha) was 10% and the “Visual Weed Control (%) - 22 DAA BRAPP Obs” value ([8]; 375 gai/ha) was 20%. The “Visual Weed Control (%) - 22 DAA BRAPP Obs” value ([8]; 750 gai/ha) was 40%.

For CCOCCN(C(=O)CCl)C(=C(C)C)c1ccccc1 [Pethoxamid, 2-Chloro-N-(2-ethoxyethyl)-N-(2-methyl-1-phenyl-1-propen-1-yl)acetamide], the “Visual Weed Control (%) - 21 DAA LEFCH Obs” value ([9]; 305 gai/ha) was 10%, the “Visual Weed Control (%) - 21 DAA LEFCH Obs” value ([9]; 610 gai/ha) was 10% and the “Visual Weed Control (%) - 21 DAA CYPIR Obs” value ([10]; 305 gai/ha) was 40%. For the same molecule, the “Visual Weed Control (%) - 21 DAA CYPIR Obs” value ([10]; 610 gai/ha) was 80%, the “Visual Weed Control (%) - 21 DAA CYPIR Obs” value ([10]; 1220 gai/ha) was 85% and the “Visual Weed Control (%) - 21 DAA CYPES Obs” value ([11]; 305 gai/ha) was 0%. The “Visual Weed Control (%) - 21 DAA CYPES Obs” value ([11]; 610 gai/ha) was 25% and the “Visual Weed Control (%) - 21 DAA CYPES Obs” value ([11]; 1220 gai/ha) was 65%.

With CCc1cccc(C)c1N(C(=O)CCl)C(C)COC (centres unmarked) [S-Metolachlor] the “Visual Weed Control IPOHE Obs” value ([12]; 387.5 gai/ha) was 25%, the “Visual Weed Control IPOHE Obs” value ([12]; 775 gai/ha) was 0% and the “Visual Weed Control IPOHE Obs” value ([12]; 1550 gai/ha) was 33%. The “Visual Weed Control (%) - 20 DAA ECHCG Obs” value ([13]; 387.5 gai/ha) was 20% and the “Visual Weed Control (%) - 20 DAA ECHCG Obs” value ([13]; 775 gai/ha) was 55%.
